Reference: patent publication US9249180B2, “C-3 alkyl and alkenyl modified betulinic acid derivatives” (priority 2013, dated 2016)

tested on: recombinant NL4-3 virus (Renilla luciferase in nef, Gag P373S; NLRluc) in MT-2 cells; experiment: HIV Cell Culture Assay (luciferase reporter, antiviral activity); type: cell-based; conditions: MT-2 cells infected for 4-5 days with NLRluc recombinants, serial dilutions of the inhibitor
Description: HIV Cell Culture Assay—MT-2 cells and 293T cells were obtained from the NIH AIDS Research and Reference Reagent Program. MT-2 cells were propagated in RPMI 1640 media supplemented with 10% heat inactivated fetal bovine serum, […]. The 293T cells were propagated in DMEM media supplemented with 10% heat inactivated fetal bovine serum (FBS), 100 units/ml penicillin G and 100 μg/ml streptomycin. The proviral DNA clone of NL4-3 was obtained from the NIH AIDS Research and Reference Reagent Program. A recombinant NL4-3 virus, in which a section of the nef gene from NL4-3 was replaced with the Renilla luciferase gene, was used as a reference virus. In addition, residue Gag P373 was converted to P373S. Briefly, the recombinant virus was prepared by transfection of the altered proviral clone of NL4-3. Transfections were performed in 293T cells using LipofectAMINE PLUS from Invitrogen (Carlsbad, Calif.), according to manufacturer's instruction. The virus was titered in MT-2 cells using luciferase enzyme activity as a marker. Luciferase was quantitated using the Dual Luciferase kit from Promega (Madison, Wis.), with modifications to the manufacturer's protocol. The diluted Passive Lysis solution was pre-mixed with the re-suspended Luciferase Assay Reagent and the re-suspended Stop & Glo Substrate (2:1:1 ratio). Fifty (50) μL of the mixture was added to each aspirated well on assay plates and luciferase activity was measured immediately on a Wallac TriLux (Perkin-Elmer). Antiviral activities of inhibitors toward the recombinant virus were quantified by measuring luciferase activity in cells infected for 4-5 days with NLRluc recombinants in the presence serial dilutions of the inhibitor.

Structure (SMILES) | EC50 [nM]
C=C(C)[C@@H]1CC[C@]2(NCCN3CCS(=O)(=O)CC3)CC[C@]3(C)[C@H](CC[C@@H]4[C@@]5(C)CC=C(CC6CCCC(C(=O)O)C6)C(C)(C)[C@@H]5CC[C@]43C)[C@@H]12 (single isomer, unassigned) [Example 3] | 1.72

same assay, conditions: Renilla, NL43, MT-2 cells infected for 4-5 days with NLRluc recombinants, serial dilutions of the inhibitor

Structure (SMILES) | EC50 [nM]
C=C(C)[C@@H]1CC[C@]2(NCCN3CCC(S(C)(=O)=O)CC3)CC[C@]3(C)[C@H](CC[C@@H]4[C@@]5(C)CC=C(C=C6CCC(F)(C(=O)O)CC6)C(C)(C)[C@@H]5CC[C@]43C)[C@@H]12 (mixture of isomers) [Example B3, 1-fluoro-4-(((1R,3aS,5aR,5bR,7aR,11aS,11bR,13aR,13bR)-5a,5b,8,8,11a-pentamethyl-3a-((2-(4-(methylsulfonyl)piperidin-1-yl)ethyl)amino)-1-(prop-1-en-2-yl)-2,3,3a,4,5,5a,5b,6,7,7a,8,11,11a,11b,12,13,13a,13b-octadecahydro-1H-cyclopenta[a]chrysen-9-yl)methylene)cyclohexanecarboxylic acid] | 4.49
C=C(C)[C@@H]1CC[C@]2(NCCN3CCS(=O)(=O)CC3)CC[C@]3(C)[C@H](CC[C@@H]4[C@@]5(C)CC=C(CC6CCCC(C(=O)O)C6)C(C)(C)[C@@H]5CC[C@]43C)[C@@H]12 (single isomer, unassigned) [Example 2] | 2
C=C(C)[C@@H]1CC[C@]2(NCCN3CCS(=O)(=O)CC3)CC[C@]3(C)[C@H](CC[C@@H]4[C@@]5(C)CC=C(CC6CCC(C(=O)O)CC6)C(C)(C)[C@@H]5CC[C@]43C)[C@@H]12 (stereo partly drawn) [Example 1, 4-(((1R,3aS,5aR,5bR,7aR,11aS,11bR,13aR,13bR)-3a-((2-(1,1-dioxidothiomorpholino)ethyl)amino)-5a,5b,8,8,11a-pentamethyl-1-(prop-1-en-2-yl)-2,3,3a,4,5,5a,5b,6,7,7a,8,11,11a,11b,12,13,13a,13b-octadecahydro-1H-cyclopenta[a]chrysen-9-yl)methyl)cyclohexanecarboxylic acid] | 2.96
C=C(C)[C@@H]1CC[C@]2(NCCN3CCS(=O)(=O)CC3)CC[C@]3(C)[C@H](CC[C@@H]4[C@@]5(C)CC=C(CCCCC(=O)O)C(C)(C)[C@@H]5CC[C@]43C)[C@@H]12 [Example 4, 5-((1R,3aS,5aR,5bR,7aR,11aS,11bR,13aR,13bR)-3a-((2-(1,1-dioxidothiomorpholino)ethyl)amino)-5a,5b,8,8,11a-pentamethyl-1-(prop-1-en-2-yl)-2,3,3a,4,5,5a,5b,6,7,7a,8,11,11a,11b,12,13,13a,13b-octadecahydro-1H-cyclopenta[a]chrysen-9-yl)pentanoic acid] | 2.27
C=C(C)[C@@H]1CC[C@]2(NCCN3CCS(=O)(=O)CC3)CC[C@]3(C)[C@H](CC[C@@H]4[C@@]5(C)CC=C(CCCC(C(=O)O)C(=O)O)C(C)(C)[C@@H]5CC[C@]43C)[C@@H]12 [Example 5, 2-(3-((1R,3aS,5aR,5bR,7aR,11aS,11bR,13aR,13bR)-3a-((2-(1,1-dioxidothiomorpholino)ethyl)amino)-5a,5b,8,8,11a-pentamethyl-1-(prop-1-en-2-yl)-2,3,3a,4,5,5a,5b,6,7,7a,8,11,11a,11b,12,13,13a,13b-octadecahydro-1H-cyclopenta[a]chrysen-9-yl)propyl)malonic acid] | 310
C=C(C)[C@@H]1CC[C@]2(NCCN3CCS(=O)(=O)CC3)CC[C@]3(C)[C@H](CC[C@@H]4[C@@]5(C)CC=C(CCC(C)(C)CC(=O)O)C(C)(C)[C@@H]5CC[C@]43C)[C@@H]12 [Example 6, 5-((1R,3aS,5aR,5bR,7aR,11aS,11bR,13aR,13bR)-3a-((2-(1,1-dioxidothiomorpholino)ethyl)amino)-5a,5b,8,8,11a-pentamethyl-1-(prop-1-en-2-yl)-2,3,3a,4,5,5a,5b,6,7,7a,8,11,11a,11b,12,13,13a,13b-octadecahydro-1H-cyclopenta[a]chrysen-9-yl)-3,3-dimethylpentanoic acid] | 1.38
C=C(C)[C@@H]1CC[C@]2(NCCN3CCS(=O)(=O)CC3)CC[C@]3(C)[C@H](CC[C@@H]4[C@@]5(C)CC=C(CCCC(C)(C)C(=O)O)C(C)(C)[C@@H]5CC[C@]43C)[C@@H]12 [Example 7, 5-((1R,3aS,5aR,5bR,7aR,11aS,11bR,13aR,13bR)-3a-((2-(1,1-dioxidothiomorpholino)ethyl)amino)-5a,5b,8,8,11a-pentamethyl-1-(prop-1-en-2-yl)-2,3,3a,4,5,5a,5b,6,7,7a,8,11,11a,11b,12,13,13a,13b-octadecahydro-1H-cyclopenta[a]chrysen-9-yl)-2,2-dimethylpentanoic acid] | 5.3
C=C(C)[C@@H]1CC[C@]2(NCCN3CCS(=O)(=O)CC3)CC[C@]3(C)[C@H](CC[C@@H]4[C@@]5(C)CC=C(CC6CCC(OCC)(C(=O)O)CC6)C(C)(C)[C@@H]5CC[C@]43C)[C@@H]12 (stereo partly drawn) [Example 8, 4-(((1R,3aS,5aR,5bR,7aR,11aS,11bR,13aR,13bR)-3a-((2-(1,1-dioxidothiomorpholino)ethyl)amino)-5a,5b,8,8,11a-pentamethyl-1-(prop-1-en-2-yl)-2,3,3a,4,5,5a,5b,6,7,7a,8,11,11a,11b,12,13,13a,13b-octadecahydro-1H-cyclopenta[a]chrysen-9-yl)methyl)-1-ethoxycyclohexanecarboxylic acid] | 4.2
C=C(C)[C@@H]1CC[C@]2(NCCN3CCS(=O)(=O)CC3)CC[C@]3(C)[C@H](CC[C@@H]4[C@@]5(C)CC=C(CC6CCC(OC)(C(=O)O)CC6)C(C)(C)[C@@H]5CC[C@]43C)[C@@H]12 (stereo partly drawn) [Example 9, 4-(((1R,3aS,5aR,5bR,7aR,11aS,11bR,13aR,13bR)-3a-((2-(1,1-dioxidothiomorpholino)ethyl)amino)-5a,5b,8,8,11a-pentamethyl-1-(prop-1-en-2-yl)-2,3,3a,4,5,5a,5b,6,7,7a,8,11,11a,11b,12,13,13a,13b-octadecahydro-1H-cyclopenta[a]chrysen-9-yl)methyl)-1-methoxycyclohexanecarboxylic acid] | 3.7
C=C(C)[C@@H]1CC[C@]2(NCCN3CCS(=O)(=O)CC3)CC[C@]3(C)[C@H](CC[C@@H]4[C@@]5(C)CC=C(CCCCCC(=O)O)C(C)(C)[C@@H]5CC[C@]43C)[C@@H]12 [Example 10, 6-((1R,3aS,5aR,5bR,7aR,11aS,11bR,13aR,13bR)-3a-((2-(1,1-dioxidothiomorpholino)ethyl)amino)-5a,5b,8,8,11a-pentamethyl-1-(prop-1-en-2-yl)-2,3,3a,4,5,5a,5b,6,7,7a,8,11,11a,11b,12,13,13a,13b-octadecahydro-1H-cyclopenta[a]chrysen-9-yl)hexanoic acid] | 3.1
C=C(C)[C@@H]1CC[C@]2(NCCN3CCS(=O)(=O)CC3)CC[C@]3(C)[C@H](CC[C@@H]4[C@@]5(C)CC=C(CCCC(=O)O)C(C)(C)[C@@H]5CC[C@]43C)[C@@H]12 [Example 11, 4-((1R,3aS,5aR,5bR,7aR,11aS,11bR,13aR,13bR)-3a-((2-(1,1-dioxidothiomorpholino)ethyl)amino)-5a,5b,8,8,11a-pentamethyl-1-(prop-1-en-2-yl)-2,3,3a,4,5,5a,5b,6,7,7a,8,11,11a,11b,12,13,13a,13b-octadecahydro-1H-cyclopenta[a]chrysen-9-yl)butanoic acid] | 10
C=C(C)[C@@H]1CC[C@]2(NCCN3CCS(=O)(=O)CC3)CC[C@]3(C)[C@H](CC[C@@H]4[C@@]5(C)CC=C(CCC(C)(C)CC(=O)NO)C(C)(C)[C@@H]5CC[C@]43C)[C@@H]12 [Example 12, 5-((1R,3aS,5aR,5bR,7aR,11aS,11bR,13aR,13bR)-3a-((2-(1,1-dioxidothiomorpholino)ethyl)amino)-5a,5b,8,8,11a-pentamethyl-1-(prop-1-en-2-yl)-2,3,3a,4,5,5a,5b,6,7,7a,8,11,11a,11b,12,13,13a,13b-octadecahydro-1H-cyclopenta[a]chrysen-9-yl)-N-hydroxy-3,3-dimethylpentanamide] | 2
C=C(C)[C@@H]1CC[C@]2(NCCN3CCS(=O)(=O)CC3)CC[C@]3(C)[C@H](CC[C@@H]4[C@@]5(C)CC=C(CCC(C)(C)CC(=O)NOC)C(C)(C)[C@@H]5CC[C@]43C)[C@@H]12 [Example 13, 5-((1R,3aS,5aR,5bR,7aR,11aS,11bR,13aR,13bR)-3a-((2-(1,1-dioxidothiomorpholino)ethyl)amino)-5a,5b,8,8,11a-pentamethyl-1-(prop-1-en-2-yl)-2,3,3a,4,5,5a,5b,6,7,7a,8,11,11a,11b,12,13,13a,13b-octadecahydro-1H-cyclopenta[a]chrysen-9-yl)-N-methoxy-3,3-dimethylpentanamide] | 30
